The subject of data set [1] is dengue virus serotype 2 (DENV2), New Guinea C strain. The data set is described as follows: DENV2 NGC effective concentration (EC50) test in LLC/MK2 cells, plaque titration. The following applies: for EC50: Dengue virus, DENV2 NGC in LLC/MK2 cells, MOI 0.1, 72 h, plaque titration; for SI NGC (CC50/EC50): LLC/MK2 CC50 / DENV2 NGC EC50. The class given is cell-based. Here is the method:
(§1) LLC/MK2 were seeded at 5 × 10^4 cells per well of 24-well plate in growth medium and incubated overnight at 37 °C under 5% CO2. Cells were infected with DENV2 NGC at the multiplicity of infection (MOI) of 0.1 for 1 h with gentle rocking every 15 min. Cells were washed with PBS and incubated with MEM supplemented with 1% fetal bovine serum, 100 I.U./mL penicillin, and 100 μg/mL streptomycin. The compound was added to the virus-infected cells during and after infection. The cells were incubated for 72 h, unless otherwise indicated, at 37 °C under 5% CO2. Supernatants were collected and the viral infectivity was analyzed by 96-well plaque titration. Data were plotted and the EC50 values were calculated by nonlinear regression analysis. Each concentration was tested in duplicate and the results were reported as the means and standard deviation of three independent experiments. The selectivity index was calculated from the ratio of CC50 and EC50. Moreover, additional EC50s of TH002 and TH011 were also taken from Huh-7 (8 × 10^4 cells) and DENV2 16,681 (MOI of 1). Supernatants were collected after 72 h incubation for plaque titration EC50 values were calculated by nonlinear regression analysis. Data were presented by means and standard errors of three independent experiments.

Data set [2] can be described thus: Cytotoxic concentration (CC50) test, MTS, LLC/MK2. The class given is cell-based, Macaca mulatta (rhesus monkey). The following applies: rhesus monkey, LLC/MK2 cells. The method, then:
(§2) LLC/MK2, THP-1, HEK-293, HepG2, or Huh-7 cells were seeded at 10^4 cells per well of 96-well plate and incubated overnight. Compounds were prepared to 6-10 different concentrations in filter-sterilized dimethylsulfoxide (Merck®, Darmstadt, Germany) before addition to the cells. The plates were incubated for 48 h before the MTS reagent (Promega®, Madison, WI, USA) was added to cells according to the manufacturer's protocol and incubated for 4 h before analysis by spectrophotometry at […]. Huh-7 cytotoxicity was assessed by the Alamar Blue assay (Invitrogen®, Waltham, MA, USA) and read by fluorometry at the excitation and emission wavelengths at 570 and 600 nm, respectively. Each compound was tested in triplicate. Cytotoxic concentrations (CC50) were calculated while using non-linear regression analysis and the results were reported as means and standard deviation of three independent experiments.

Data set [3] in a line: Solubility observations in culture media and vehicles. The class given is physicochemical. The following applies: for Concentration above which compound was only partially dissolved: cell culture test conditions; for Dissolution in culture media, DMSO and NSS: data not shown.
The test system of data set [4] is DENV2 16681. The data set is described as follows: DENV2 16681 EC50 test in Huh-7 cells, plaque titration. The class given is cell-based, dengue virus serotype 2. The settings on record: for EC50: Dengue virus, DENV2 16681 in Huh-7 cells, MOI 1, 72 h, plaque titration; for SI (16681) (CC50/EC50): Huh-7 CC50 / DENV2 16681 EC50. The method, then:
as §1

A short description of data set [5]: Cytotoxic concentration (CC50) test, MTS, THP-1. It counts as cell-based. The settings on record: human, THP-1 cells, THP-1, 48 h. The method, then: as §2
The nature of data set [6]: Cytotoxic concentration (CC50) test, MTS, HEK-293. It counts as cell-based. The settings on record: human, HEK-293 cells, HEK-293, 48 h. Here is the method:
as §2

Data set [7] in a line: Cytotoxic concentration (CC50) test, MTS, HepG2. It counts as cell-based. The following applies: human, HepG2 cells, HepG2, 48 h. The method, then: as §2
Data set [8] in a line: Cytotoxic concentration (CC50) test, Alamar Blue, Huh-7. It counts as cell-based. The following applies: human, Huh-7 cells; Huh-7, Alamar Blue. Here is the method:
as §2
On the technique in general: Resazurin is reduced to fluorescent resorufin, in cell work by metabolically active cells.

For data set [9], the system named is C57BL/6 mice. The experiment in a line: Animal toxicity study, intravenous administration. It counts as in vivo, mouse. The following applies: 10 mg/kg intravenous. Here is the method: The animal care and use protocol identification number 016-2562 was approved by the Institutional Animal Care and Use Committee (CU-ACUP) of the Faculty of Medicine, Chulalongkorn University, Bangkok, Thailand, based on the National Institutes of Health, USA’s criteria for the use and treatment of laboratory animals. Male 8-week-old C57BL/6 mice purchased from the National Laboratory Animal Center, Nakhornpathom, Thailand were used in the experiments. TH011 and TH002 were diluted with 10% DMSO in normal saline solution. The preparations were intravenously administered at the concentration of 10 mg/kg through a tail vein (n = 5/group). The 10% DMSO in normal saline solution was used as vehicle control. Blood were collected through tail vein nicking at day one, three, and eight after administration and the serum samples were kept at −80 °C until analysis. Renal function (serum creatinine; Scr) and liver function (serum alanine transaminase; ALT) were measured by colorimetric assays while using QuantiChromTM (DICT-500, BioAssay, Hayward, CA, USA) and EnzyChrom (EALT-100, BioAssay), respectively.

In data set [10] the test system is DENV envelope-induced fusion. The experiment in a line: Fusion inhibition study in C6/36 cells. It counts as cell-based, dengue virus serotype 2. The following applies: 10 µM, DENV2 NGC-infected C6/36 cells, 0.5 M MES pH 5.5. The method, then:
C6/36 were seeded at 1 × 10^5 cells per well of 24-well plate MEM that was supplemented with 10% FBS and incubated overnight at 28 °C. Cells were infected with the virus at the multiplicity of infection (MOI) of 1 for 1 h at 28 °C. Compounds TH002 and TH011 were diluted in DMSO and added to the infected cells to the final concentration of 10 µM in 1% DMSO after DENV2 NGC (M.O.I. of 1) infection. Cells were incubated with MEM supplemented with 1% fetal bovine serum for 48 h before the addition of 0.5 M MES. Cells were incubated for an additional 24–48 h at 28 °C until the fused cells were visualized under light microscope.
Figure S5. Fusion inhibition assay; TH002 and TH011 (10 µM) were incubated with the DENV2-infected cells for
2 days before addition of 0.5 M MES, pH 5.5. The 4G2 antibody was an inhibitor of DENV envelope fusion and
was used as a control. Pos and Neg were abbreviated from positive (DENV) and negative (media-only) controls,
(1 picture or pasted object on this page, not shown here)

The subject of data set [11] is DENV2. Details: method as in PMID 29360474. The following applies: cited from earlier work.
The subject of data set [12] is DENV 4. More on the design: method as in PMID 29360474. The following applies: read-out: DENV4 EC50; cited from earlier work.
Data set [13] concerns dengue virus serotype 2 (DENV2), New Guinea C strain. More on the design: method as in Srivarangkul et al. 2018 [11]. The settings on record: ref Srivarangkul et al. 2018 [11]; read-out: DENV2 NGC EC50; cited from earlier work.
For data set [14], the system named is LLC/MK2 cells. More on the design: method as in Srivarangkul et al. 2018 [11]. The following applies: ref Srivarangkul et al. 2018 [11]; cited from earlier work.
The test system of data set [15] is Zika viruses. More on the design: method as in PMID 30959074. The settings on record: read-out: Zika virus EC50; cited from earlier work.
In data set [16] the test system is DENV NS3 protease. The following applies: cited from earlier work.
The test system of data set [17] is DENV NS5 polymerase. More on the design: method as in PMID 22050318. The following applies: cited from earlier work.
Details of data set [18]: method as in PMID 25744566. The following applies: rat, intravenous, 10 mg, single dose; cited from earlier work.
Details of data set [19]: method as in PMID 25744566. The following applies: human, 20 mg, iv drip; cited from earlier work.

A word on the EC50: it is the concentration needed to bring the measured effect to its halfway point. Broadly, the CC50 is the concentration that lowers cell viability or growth by half. A word on the half-life: it is how long it takes for the measured level to halve. The term Ki denotes a measure of affinity in units of concentration, obtained from inhibition or displacement.

SMILES strings stand for the structures. Read-outs that look alike come from different tables or passages of the source. A value given as a limit tells only on which side of the number the result lay.

With `COc1c(I)c(O)c2c(c1I)OC(c1ccccc1)CC2=O` (stereo not drawn) [TH012, 6,8-diiodo-5-hydroxy-7-methoxyflavanone], in data set [1], the midpoint of the response, the EC50, lay at 2.8 ± 1.55 µM and the “SI NGC (CC50/EC50)” value is on record as over 3.5714. For the same compound, the CC50 at 48 h in data set [2] was over 10 µM. In [3], the “Concentration above which compound was only partially dissolved” value is “exceeded 10 µM”.
As for `O=C1CC(c2ccccc2)Oc2c(Br)c(O)c(Br)c(O)c21` (stereo not drawn) [TH011, 6,8-dibromo-5,7-dihydroxyflavanone], the EC50 in data set [1] was 2.06 ± 0.754 µM; in data set [4] it was 4.59 µM. For the same compound, in data set [1], the “SI NGC (CC50/EC50)” value is 32.5621. The “SI (16681) (CC50/EC50)” value in data set [4] is listed as “(10.5201)”. Besides, the 50% cytotoxic concentration (CC50) at 48 h in data set [2] was 67.2 ± 0.973 µM; in data set [5], over 100 µM; in data set [6], 93.2 ± 5.99 µM; in [7], over 100 µM; in [8], 48.3 ± 4.11 µM. In addition, the “ALT levels (hepatotoxicity)” value in [9] (day 1 and 3) is reported as “not obviously seen”. The “Inhibition of DENV envelope-induced fusion under acidic pH” value in [10] is recorded as “no fusion inhibition observed”. Moreover, in [3], the “Dissolution in culture media, DMSO and NSS” value is given as “completely dissolved”.
Regarding `COc1cc2c(c(O)c1C)C(=O)CC(c1ccccc1)O2` (stereo not drawn) [6-methylpinostrobin], the EC50 is 16 ± 5.38 µM in data set [11] and 11.7 ± 6.04 µM in data set [12].
Take `COc1cc2c(c(O)c1I)C(=O)CC(c1ccccc1)O2` (stereo not drawn) [TH018, 6-iodo-5-hydroxy-7-methoxyflavanone]: in data set [1], it took 4.1 ± 1.84 µM to reach a half-maximal effect (EC50) and the “SI NGC (CC50/EC50)” value is over 6.0945. For the same compound, the half-maximal cytotoxic concentration (CC50) at 48 h in data set [2] is over 25 µM. The “Concentration above which compound was only partially dissolved” value in [3] is given as over 25 µM.
`O=C1CC(c2ccccc2)Oc2cc(O)cc(O)c21` (stereo not drawn) [TH022, 5,7-dihydroxyflavanone]: in [1], the “SI NGC (CC50/EC50)” value is over 6.47. The EC50 in data set [13] is 15.5 µM; in data set [15] it was 17.4 µM. Further, the CC50 in data set [14] is over 100 µM. Also, the “DENV NS3 protease IC50” value in data set [16] is on record as 286.90 µg/mL. In addition, the “Inhibition of DENV NS5 polymerase activity” value in data set [17] is “not inhibit”. Moreover, the half-life in data set [18] was 12 to 14 min; in data set [19], 47 min.
Regarding `COc1c(Br)c(O)c2c(c1Br)OC(c1ccccc1)CC2=O` (stereo not drawn) [TH002, 6,8-dibromo-5-hydroxy-7-methoxyflavanone], the concentration for a half-maximal effect (EC50) in data set [1] turned out to be 5.86 ± 0.507 µM; in data set [4], 3.19 µM. Also, the “SI NGC (CC50/EC50)” value in [1] is listed as >17.0745,. Besides, the “SI (16681) (CC50/EC50)” value in [4] is “(23.9342)”. The CC50 at 48 h in data set [2] is over 100 µM; in data set [5], 51.8 ± 2.3 µM; in data set [6], over 100 µM; in [7] it was 49.9 ± 2.7 µM; in data set [8], 76.4 ± 7.2 µM. The “ALT levels (hepatotoxicity)” value is “mildly elevated” in data set [9] (day 1 and 3); “decreased to normal” in data set [9] (day 8). In [10], the “Inhibition of DENV envelope-induced fusion under acidic pH” value was “no fusion inhibition observed”. Moreover, the “Dissolution in culture media, DMSO and NSS” value in data set [3] is recorded as “completely dissolved”.
With `COc1cc(O)c2c(c1)O[C@H](c1ccccc1)CC2=O` [TH019, pinostrobin], in [1], it took 10.8 ± 1.63 µM to reach a half-maximal effect (EC50) and the “SI NGC (CC50/EC50)” value is 7.3242. The compound further gave a CC50 at 48 h in data set [2] of 78.8 ± 2.92 µM. Besides, in [16], the “DENV NS3 protease IC50” value is listed as 90.48 µg/mL and the inhibitory constant (Ki) is 345 ± 70 µM.

The values are drawn from article PMC7571160, “Dibromopinocembrin and Dibromopinostrobin Are Potential Anti-Dengue Leads with Mild Animal Toxicity” (Molecules, 2020).
